The source of these data is patent US20260325504A1, “Genetically Engineered Human Pituitary Corticotroph Tumor Organoids Exhibit Divergent Responses to Selective Glucocorticoid Receptor Modulators” (Corcept Therapeutics Incorporated, priority 2022, published 2026).

Experiment [1] relates to iPSC^ctrl organoids. Nature of the experiment: EdU uptake (proliferation) in iPSCctrl organoids. The format is cell-based, human. As to conditions: compound alone, 500 nM, 48 h. On the procedure: iPSCs were stained for pituitary specific hormones including luteinizing hormone (LH), follicle-stimulating hormone (FSH), growth hormone (GH), prolactin (PRL), ACTH, cytokeratin 8/18 (CAM5.2), pituitary transcription factor PIT-1 and neuroendocrine marker Synaptophysin (Table 5). Cultures were immunostained for proliferation marker EdU (Click-IT EdU Alexa Fluor 555 Imaging Kit, Thermo Fisher Scientific C10338). Antibody dilutions were determined based on manufacturer guidelines and antibody titration (Table 5). Staining was conducted according to previously published protocols. Briefly, organoids and iPSCs grown in 8-well glass bottom chamber slides were fixed using 3.7% formaldehyde, washed with DPBS, permeabilized with 0.5% Triton X-100 (SIGMA X-100, PBS-T, 20 min at room temperature), washed with 0.01% PBS-T, and blocked with 2% donkey serum (Jackson Immuno Research 017-000-121) for 1 hour at room temperature. After blocking, primary antibodies were added and incubated overnight at 4° C. Slides were washed with 0.01% PBS-T and incubated with secondary antibodies (Table 5) with Hoechst (Thermo Fisher Scientific H1399) for 1 hour at room temperature. Organoids were washed and stored in PBS at 4° C. until microscopic analysis. High content confocal microscopy was performed using the Nikon Ti2-E Inverted Microscope (with a Crest X-Light V2 L-FOV Spinning Disk Confocal) at the University of Arizona Cancer Center, or a ZEISS LSM880 34 channel Laser Scanning Confocal Microscope at University of Arizona Marley Imaging Core. Fluorescence intensity was quantified as the percentage of marker-positive cells versus total cells, using Nikon Elements Software (Version 5.21.05). Proliferation for each iPSC line was quantified as the percentage of EdU-positive cells versus total cells.
Sonic Hedgehog (SHH) was withdrawn from the organoid growth media 16 hours prior to treatment. The experimental treatment groups included: vehicle (Veh), mifepristone (500 nM, Selleckchem S2606), GANT61 (5 μM, Stemcell Technologies 73692), ketoconazole (Keto, 10 μM, Selleckchem S1353), pasireotide (Pas, 100 nM, Target Mol TP2207-SB001), octreotide (Oct, 100 nM, Selleckchem P1017), mifepristone plus GANT61, mifepristone plus Keto, mifepristone plus Pas, relacorilant (500 nM, Corcept Therapeutics CORT125134), relacorilant plus Pas, relacorilant plus Oct, or dexamethasone (Dexa, 100 nM, SIGMA S4902). In the combination treatments, cultures were pretreated with the GANT61, Keto, Pas or Oct for 2 hours prior to treatment with mifepristone or Rela. […] The IC50 values used for each hPITO line for each drug were determined based on dose responses (FIG. 12). […]

The subject of experiment [2] is iPSC^ctrl organoids. Nature of the experiment: ACTH secretion ELISA, iPSCctrl organoids. It is filed as cell-based, human. As to conditions: 500 nM, 48 h, FIG. 6G. On the procedure:
(§1) Sonic Hedgehog (SHH) was withdrawn from the organoid growth media 16 hours prior to treatment. The experimental treatment groups included: vehicle (Veh), mifepristone (500 nM, Selleckchem S2606), GANT61 (5 μM, Stemcell Technologies 73692), ketoconazole (Keto, 10 μM, Selleckchem S1353), pasireotide (Pas, 100 nM, Target Mol TP2207-SB001), octreotide (Oct, 100 nM, Selleckchem P1017), mifepristone plus GANT61, mifepristone plus Keto, mifepristone plus Pas, relacorilant (500 nM, Corcept Therapeutics CORT125134), relacorilant plus Pas, relacorilant plus Oct, or dexamethasone (Dexa, 100 nM, SIGMA S4902). In the combination treatments, cultures were pretreated with the GANT61, Keto, Pas or Oct for 2 hours prior to treatment with mifepristone or Rela. PitNET tissue derived organoids hPITO36, hPITO37, hPITO38, hPITO39, and hPITO40 were treated with the following experimental conditions: Vehicle (1), pasireotide (2), relacorilant (3), relacorilant & pasireotide (4), mifepristone (5), mifepristone & pasireotide (6). The IC50 values used for each hPITO line for each drug were determined based on dose responses (FIG. 12). All organoid cultures were treated for 48 hours prior to analysis.
(§2) Organoid conditioned media was collected and ACTH secretion using an ELISA according to the manufacturer's protocol (Novus Biologicals Human ACTH ELISA Kit NBP2-66401). The optical density was measured at a wavelength of 450 nm, and ACTH concentration (pg/mL) was interpolated using a standard curve with a 4-parameter logistic regression analysis using GraphPad Prism (v9.3.1).
A general note: In an ELISA, binding on a coated surface is turned into a signal by an enzyme label.

For experiment [3], the system named is iPSC^USP48MV organoids. Nature of the experiment: ACTH secretion ELISA, iPSCUSP48 organoids. It is filed as cell-based, human. The note with it: text: iPSCUSP48MI; FIG. 7G: iPSCUSP48MV; 500 nM, 48 h. Here is the method:
as §1, §2

For experiment [4], the system named is glucocorticoid receptor (GR). As to conditions: cited from earlier work.
The test system of experiment [5] is estrogen receptor. The note with it: cited from earlier work.
The test system of experiment [6] is androgen receptor. The note with it: cited from earlier work.
The test system of experiment [7] is pancreatic cancer cell lines. As to conditions: in vitro; cited from earlier work.
Experiment [8] relates to ovarian cancer cell lines. The note with it: in vitro; cited from earlier work.

Structures are written as SMILES. Read-outs that look alike come from different tables or passages of the source.

On to `CC#C[C@]1(O)CC[C@H]2[C@@H]3CCC4=CC(=O)CCC4=C3[C@@H](c3ccc(N(C)C)cc3)C[C@@]21C` [mifepristone, 11β-(4-dimethylaminophenyl)-17ß-hydroxy-17α-(1-propynyl)-estra-4,9-dien-3-one], for which the “proliferation (EdU uptake)” value in experiment [1] was “significant increase in cell proliferation”. Besides, the “magnitude of ACTH secretion, mifepristone vs relacorilant” value in experiment [2] and in experiment [3] was “significantly greater than the effect of relacorilant” throughout. Further, the “binding to the glucocorticoid receptor” value is reported as “competes with cortisol binding at the GR” in experiment [4] and “typically with high affinity” in experiment [4] (listed as Mifepristone).

Turning to `Cn1cc(S(=O)(=O)N2CCC3=Cc4c(cnn4-c4ccc(F)cc4)C[C@]3(C(=O)c3cc(C(F)(F)F)ccn3)C2)cn1` [relacorilant, (R)-(1-(4-fluorophenyl)-6-((1-methyl-1H-pyrazol-4-yl)sulfonyl)-4,4a,5,6,7,8-hexahydro-1H-pyrazolo[3,4-g]isoquinolin-4a-yl) (4-(trifluoromethyl)pyridin-2-yl) methanone], the “proliferation (EdU uptake)” value in experiment [1] was “did not induce organoid proliferation”. Also, in experiment [5], the “binding to the estrogen receptor” value was “no detectable binding”. Moreover, the “binding to the androgen receptor” value in experiment [6] is “no detectable binding”. For the same compound, the apoptosis result in experiment [7] and in experiment [8] was “induces apoptosis” in each case.
